The text below walks through data of patent publication US20260070945A1, “MACROCYCLIC IMMUNOMODULATORS” (Bristol-Myers Squibb Company, priority 2022, published 2026).

Where a SMILES comes first, the peptide text is derived from it. Bridges are numbered along the chain shown (N, C = ends). [ ]: non-standard residue; d: D form. The star is where a group is joined. ξ: configuration not given here. Bip = N[C@@H](Cc1ccc(-c2ccccc2)cc1)C(=O)O; Phe(3-Me) = Cc1cccc(C[C@H](N)C(=O)O)c1; 4Pal = N[C@@H](Cc1ccncc1)C(=O)O; Cha = N[C@@H](CC1CCCCC1)C(=O)O; Cit = NC(=O)NCCC[C@H](N)C(=O)O; Carboxymethyl = O=C(O)C*; NMeA = CN[C@@H](C)C(=O)O; Orn = NCCC[C@H](N)C(=O)O; Aun = NCCCCCCCCCCC(=O)O; Dab = NCC[C@H](N)C(=O)O; Dap = NC[C@H](N)C(=O)O; AEEA = NCCOCCOCC(=O)O; ξV = CC(C)C(N)C(=O)O

T1 sequence (Q15116 25-288): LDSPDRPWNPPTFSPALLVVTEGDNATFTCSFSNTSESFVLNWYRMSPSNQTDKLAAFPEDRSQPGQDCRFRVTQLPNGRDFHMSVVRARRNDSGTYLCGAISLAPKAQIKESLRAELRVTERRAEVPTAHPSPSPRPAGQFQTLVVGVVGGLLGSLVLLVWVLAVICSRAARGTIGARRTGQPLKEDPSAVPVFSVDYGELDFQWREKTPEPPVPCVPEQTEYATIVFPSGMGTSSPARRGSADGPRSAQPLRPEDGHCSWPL

This assay addresses T1, PD-1/PD-L1 interaction (PE-labeled human PD-L1-Ig binding to Jurkat cell line over-expressing human PD-1) (Homo sapiens, UniProt Q15116).
T1 construct: expressed in transfected cells; host or cells: Jurkat
As to the kind of experiment: Jurkat-PD-1 Cell Binding High-Content Screening Assay (CBA). To be noted: Jurkat-hPD-1 cells, PE-labeled PD-L1-Ig 20 nM final; read-out: Jurkat HPD1 PDL1 IC50. In a few lines: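 Read-out: high-content imaging of cell-bound PE fluorescence, with Hoechst 33342 nuclear counterstain after paraformaldehyde fixation. Before labeled ligand (20 nM final, 1 h) was added, compound sat on the cells for 2 h at 37 °C in DMEM/10% FCS.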
As usually defined, the IC50 is the concentration that gives 50% inhibition. As to `CC(C)C[C@@H]1NC(=O)[C@H](Cc2c[nH]c3ccccc23)NC(=O)[C@H](CC(=O)O)NC(=O)[C@H](Cc2ccc(OCC(=O)O)cc2)NC(=O)[C@H](Cc2ccccc2)NC(=O)CSC[C@@H](C(=O)N[C@@H](CCCCN)C(=O)NCCCCCCCCCCC(=O)O)NC(=O)[C@H](CN)NC(=O)[C@H](C(C)C)NC(=O)[C@H](CC(C)C)NC(=O)[C@H](CC(N)=O)NC(=O)[C@@H](CC(C)C)NC(=O)[C@H](C)N(C)C(=O)[C@H](C(C)C)NC(=O)[C@H](Cc2ccc(-c3ccccc3)cc2)NC1=O` [Example 1350] ({CH2CO}-FY(Carboxymethyl)DWL[Bip]V[NMeA][dL]NLV[Dap]CK[Aun]-OH; thioether N-14), the IC50 was 119 nM.

`CC(C)C[C@H]1NC(=O)[C@H](C)N(C)C(=O)[C@H](CCCNC(N)=O)NC(=O)[C@H](Cc2ccc(-c3ccccc3)cc2)NC(=O)[C@H](C(C)C)NC(=O)[C@H](Cc2c[nH]c3ccccc23)NC(=O)[C@H](CC(=O)O)NC(=O)[C@H](Cc2ccc(OCC(=O)O)cc2)NC(=O)[C@H](CCCNC(=N)N)NC(=O)CSC[C@@H](C(=O)N[C@@H](CCN)C(=O)NCCCCCCCCCCC(=O)O)NC(=O)[C@H]([C@@H](C)O)NC(=O)[C@H](C(C)C)NC(=O)[C@H](CC2CCCCC2)NC(=O)[C@H](CCN)NC1=O` [Example 1353] ({CH2CO}-RY(Carboxymethyl)DWV[Bip][Cit][NMeA][dL][Dab][Cha]VTC[Dab][Aun]-OH; thioether N-14): the IC50 amounted to 16.3 nM.

For `CC(C)C[C@H]1NC(=O)[C@H](C)N(C)C(=O)[C@H](CCCNC(N)=O)NC(=O)[C@H](Cc2ccc(-c3ccccc3)cc2)NC(=O)[C@H](Cc2ccc(O)cc2)NC(=O)[C@H](Cc2c[nH]c3ccccc23)NC(=O)[C@H](CC(=O)O)NC(=O)[C@H](Cc2ccc(OCC(=O)O)cc2)NC(=O)[C@H](CCCNC(=N)N)NC(=O)CSC[C@@H](C(=O)N[C@@H](CCN)C(=O)NCCCCCCCCCCC(=O)O)NC(=O)[C@H]([C@@H](C)O)NC(=O)[C@H](C(C)C)NC(=O)[C@H](CC2CCCCC2)NC(=O)[C@H](CCN)NC1=O` [Example 1354] ({CH2CO}-RY(Carboxymethyl)DWY[Bip][Cit][NMeA][dL][Dab][Cha]VTC[Dab][Aun]-OH; thioether N-14), the IC50 came to 42.2 nM.

With `Cc1cccc(C[C@@H]2NC(=O)[C@H](CC(=O)O)NC(=O)[C@H](Cc3ccc(OCC(=O)O)cc3)NC(=O)[C@H](CCCNC(=N)N)NC(=O)CSC[C@@H](C(=O)N[C@@H](CCN)C(=O)NCCCCCCCCCCC(=O)O)NC(=O)[C@H]([C@@H](C)O)NC(=O)[C@H](C(C)C)NC(=O)[C@H](CC3CCCCC3)NC(=O)[C@H](CCN)NC(=O)[C@@H](CC(C)C)NC(=O)[C@H](C)N(C)C(=O)[C@H](CCCNC(N)=O)NC(=O)[C@H](Cc3ccc(-c4ccccc4)cc3)NC(=O)[C@H](Cc3ccc(O)cc3)NC2=O)c1` [Example 1355] ({CH2CO}-RY(Carboxymethyl)D[Phe(3-Me)]Y[Bip][Cit][NMeA][dL][Dab][Cha]VTC[Dab][Aun]-OH; thioether N-14), the IC50 is 5.1 nM.

For the compound `Cc1cccc(C[C@@H]2NC(=O)[C@H](CC(=O)O)NC(=O)[C@H](Cc3ccc(OCC(=O)O)cc3)NC(=O)[C@H](CN)NC(=O)CSC[C@@H](C(=O)N[C@@H](CCN)C(=O)NCCCCCCCCCCC(=O)O)NC(=O)[C@H]([C@@H](C)O)NC(=O)[C@H](C(C)C)NC(=O)[C@H](CC3CCCCC3)NC(=O)[C@H](CCN)NC(=O)[C@@H](CC(C)C)NC(=O)[C@H](C)N(C)C(=O)[C@H](CCCNC(N)=O)NC(=O)[C@H](Cc3ccc(-c4ccccc4)cc3)NC(=O)C(C(C)C)NC2=O)c1` (stereo partly drawn) [Example 1356] ({CH2CO}-[Dap]Y(Carboxymethyl)D[Phe(3-Me)][ξV][Bip][Cit][NMeA][dL][Dab][Cha]VTC[Dab][Aun]-OH; thioether N-14), the IC50 came to 14.6 nM.

For the compound `Cc1cccc(C[C@@H]2NC(=O)[C@H](CC(=O)O)NC(=O)[C@H](Cc3ccncc3)NC(=O)[C@H](Cc3ccc(OCC(=O)O)cc3)NC(=O)CSC[C@@H](C(=O)N[C@@H](CCN)C(=O)NCCOCCOCC(=O)NCCCCCCCCCCC(=O)O)NC(=O)[C@H]([C@@H](C)O)NC(=O)[C@H](C(C)C)NC(=O)[C@H](CC3CCCCC3)NC(=O)[C@H](CC(N)=O)NC(=O)[C@@H](CC(C)C)NC(=O)[C@H](C)N(C)C(=O)[C@H](Cc3ccc(OCC(=O)O)cc3)NC(=O)[C@H](Cc3ccc(-c4ccccc4)cc3)NC(=O)[C@H](Cc3ccc(OCC(=O)O)cc3)NC2=O)c1` [Example 1357] ({CH2CO}-Y(Carboxymethyl)[4Pal]D[Phe(3-Me)]Y(Carboxymethyl)[Bip]Y(Carboxymethyl)[NMeA][dL]N[Cha]VTC[Dab][AEEA][Aun]-OH; thioether N-14), the IC50 is 20.5 nM.

Consider `Cc1cccc(C[C@@H]2NC(=O)[C@H](CC(=O)O)NC(=O)[C@H](Cc3ccncc3)NC(=O)[C@H](Cc3ccc(OCC(=O)O)cc3)NC(=O)CSC[C@@H](C(=O)N[C@@H](CCCN)C(=O)NCCOCCOCC(=O)NCCCCCCCCCCC(=O)O)NC(=O)[C@H]([C@@H](C)O)NC(=O)[C@H](C(C)C)NC(=O)[C@H](CC3CCCCC3)NC(=O)[C@H](CC(N)=O)NC(=O)[C@@H](CC(C)C)NC(=O)[C@H](C)N(C)C(=O)[C@H](Cc3ccc(OCC(=O)O)cc3)NC(=O)[C@H](Cc3ccc(-c4ccccc4)cc3)NC(=O)[C@H](Cc3ccc(OCC(=O)O)cc3)NC2=O)c1` [Example 1358] ({CH2CO}-Y(Carboxymethyl)[4Pal]D[Phe(3-Me)]Y(Carboxymethyl)[Bip]Y(Carboxymethyl)[NMeA][dL]N[Cha]VTC[Orn][AEEA][Aun]-OH; thioether N-14), for which the half-inhibitory concentration (IC50) was determined as 45.6 nM.

With `Cc1cccc(C[C@@H]2NC(=O)[C@H](CC(=O)O)NC(=O)[C@H](Cc3ccncc3)NC(=O)[C@H](Cc3ccc(OCC(=O)O)cc3)NC(=O)CSC[C@@H](C(=O)N[C@@H](CCN)C(=O)NCCOCCOCC(=O)NCCCCCCCCCCC(=O)O)NC(=O)[C@H](CCCN)NC(=O)[C@H](C(C)C)NC(=O)[C@H](CC3CCCCC3)NC(=O)[C@H](CC(N)=O)NC(=O)[C@@H](CC(C)C)NC(=O)[C@H](C)N(C)C(=O)[C@H](Cc3ccc(OCC(=O)O)cc3)NC(=O)[C@H](Cc3ccc(-c4ccccc4)cc3)NC(=O)[C@H](Cc3ccc(OCC(=O)O)cc3)NC2=O)c1` [Example 1359] ({CH2CO}-Y(Carboxymethyl)[4Pal]D[Phe(3-Me)]Y(Carboxymethyl)[Bip]Y(Carboxymethyl)[NMeA][dL]N[Cha]V[Orn]C[Dab][AEEA][Aun]-OH; thioether N-14), the IC50 was 23.2 nM.

For `Cc1cccc(C[C@@H]2NC(=O)[C@H](CC(=O)O)NC(=O)[C@H](Cc3ccncc3)NC(=O)[C@H](Cc3ccc(OCC(=O)O)cc3)NC(=O)CSC[C@@H](C(=O)N[C@@H](CCN)C(=O)NCCOCCOCC(=O)NCCCCCCCCCCC(=O)O)NC(=O)[C@H]([C@@H](C)O)NC(=O)[C@H](C(C)C)NC(=O)[C@H](CC3CCCCC3)NC(=O)[C@H](CCN)NC(=O)[C@@H](CC(C)C)NC(=O)[C@H](C)N(C)C(=O)[C@H](Cc3ccc(OCC(=O)O)cc3)NC(=O)[C@H](Cc3ccc(-c4ccccc4)cc3)NC(=O)[C@H](Cc3ccc(OCC(=O)O)cc3)NC2=O)c1` [Example 1360] ({CH2CO}-Y(Carboxymethyl)[4Pal]D[Phe(3-Me)]Y(Carboxymethyl)[Bip]Y(Carboxymethyl)[NMeA][dL][Dab][Cha]VTC[Dab][AEEA][Aun]-OH; thioether N-14), the 50% inhibitory concentration (IC50) is 8.6 nM.
